Experimental data published in patent publication US12492181B2, “Gem-disubstituted piperidine melanocortin subtype-2 receptor (MC2R) antagonists and uses thereof” (Crinetics Pharmaceuticals, Inc., priority 2019, dated 2025).

Molecular target: T1, hMC2 receptor (crude hMC2R membranes from CRE-bla-CHO-K1 cells stably expressing hMC2 receptor and hMRAP accessory protein) (Homo sapiens, UniProt Q01718)
T1 construct: crude membrane fractions
Assay: hMC2 membrane binding assay ([125I]ACTH (1-39) Tyr23, SPA)
Conditions: displacement of 0.2 nM [125I]ACTH (1-39) Tyr23 from hMC2R membranes, 1.5 hours at room temperature; read-out: MC2R binding potency
Description: Crude membrane fractions are prepared from CRE-bla-CHO-K1 cells stably expressing hMC2 receptor and hMRAP accessory protein (Thermo Fisher). The cells are grown to 85-100% confluence on standard tissue culture dishes in GlutaMax DMEM growth media (Gibco) with following additives: 10% dialyzed FBS (Gemini), 0.1 mM NEAA (Gibco), 25 mM HEPES (Gibco), 5 μg/mL blasticidin (Goldbio), 100 μg/mL zeocin (Invitrogen), 600 μg/mL hygromycin (Goldbio). To prepare membranes, cells are scraped and collected in 1× Dulbecco's phosphate buffered saline (Corning) and then pelleted at 1000 RPM's. The cell pellet is reconstituted in membrane preparation buffer (20 mM HEPES, 6 mM MgCl2 and 1 mM EGTA, protease inhibitor tablets (Pierce) adjusted to pH 7.4), homogenized using a dounce homogenizer, and the resulting membrane fraction is pelleted by centrifugation at 12,000 RPM's. The membrane pellet is resuspended in membrane preparation buffer, snap freezed and stored at −80° C. for later use.
Binding Assay for hMC2 Antagonists Protocol:
The hMC2 membrane binding assay utilizes the following components: radiolabel [^125I]ACTH (1-39) Tyr23 (PerkinElmer), wheatgerm agglutinin coated PVT SPA beads (PerkinElmer), crude hMC2R membranes, and compounds. Briefly hMC2R membranes are incubated with SPA beads in binding assay buffer (50 mM HEPES, 5 mM MgCl2, 1 mM CaCl2), 0.20% BSA, protease inhibitor tablets (Pierce) adjusted to pH7.4) prior to assay initiation. […] Assay plates are read using a Top Count NXT and Ki values for compounds are determined using a GraphPad Prism 6 non-linear regression analysis.

T1 sequence (Q01718 whole entry): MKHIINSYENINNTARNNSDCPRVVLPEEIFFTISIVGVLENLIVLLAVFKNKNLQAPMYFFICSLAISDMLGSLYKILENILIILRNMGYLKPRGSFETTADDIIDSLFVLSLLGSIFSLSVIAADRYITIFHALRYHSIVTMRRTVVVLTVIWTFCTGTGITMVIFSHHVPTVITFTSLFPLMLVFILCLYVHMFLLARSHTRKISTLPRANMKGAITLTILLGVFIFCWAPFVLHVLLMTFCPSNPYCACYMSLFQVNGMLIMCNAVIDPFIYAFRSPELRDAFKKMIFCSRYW
T1 sequence (Q8TCY5 whole entry partner): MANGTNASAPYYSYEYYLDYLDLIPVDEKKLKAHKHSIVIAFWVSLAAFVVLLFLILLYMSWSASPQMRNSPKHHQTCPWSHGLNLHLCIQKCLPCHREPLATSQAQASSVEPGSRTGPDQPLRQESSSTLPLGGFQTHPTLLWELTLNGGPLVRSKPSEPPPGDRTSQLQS

Row | Compound | Ki [nM]
1 | CCOc1ncccc1-c1ccc(C2(C(=O)NC[C@H](C)N(C)C)CCN(c3ccc(C(F)(F)F)cc3C#N)CC2)cn1 [Compound 1-332, 1-[2-cyano-4-(trifluoromethyl)phenyl]-N-[(2S)-2-(dimethylamino)propyl]-4-{2′-ethoxy-[2,3′-bipyridin]-5-yl}piperidine-4-carboxamide] | < 10
2 | CCOc1ccccc1-c1ccc(C2(NC(=O)[C@@H]3CCN(C)C3)CCN(c3ccc(Cl)cc3C#N)CC2)cn1 [Compound 2-29, (3R)—N-[1-(4-chloro-2-cyanophenyl)-4-[6-(2-ethoxyphenyl)pyridin-3-yl]piperidin-4-yl]-1-methylpyrrolidine-3-carboxamide] | < 10
3 | COc1ccccc1-c1ncc(C2(NC(=O)O[C@@H]3CCN(C)C3)CCN(c3ccc(C(F)(F)F)cc3C#N)CC2)cc1F [Compound 2-50, (3R)-1-methylpyrrolidin-3-yl N-{1-[2-cyano-4-(trifluoromethyl)phenyl]-4-[5-fluoro-6-(2-methoxyphenyl)pyridin-3-yl]piperidin-4-yl}carbamate] | < 10
4 | COc1ccccc1-c1ccc(C2(C(=O)N[C@H]3C[C@H]4CC[C@@H]3N4C)CCN(c3ccc(C(F)(F)F)cc3C#N)CC2)cn1 (racemic) [Compound 1-252, rac-1-[2-cyano-4-(trifluoromethyl)phenyl]-4-[6-(2-methoxyphenyl)pyridin-3-yl]-N-[(1S,2S,4R)-7-methyl-7-azabicyclo[2.2.1]heptan-2-yl]piperidine-4-carboxamide] | 10 to 100
5 | CCOc1ncccc1-c1ccc(C2(C(=O)NCCN(C)C)CCN(c3ccc(C(F)(F)F)cc3Cl)CC2)cn1 [Compound 1-224, 1-[2-chloro-4-(trifluoromethyl)phenyl]-N-[2-(dimethylamino)ethyl]-4-{2′-ethoxy-[2,3′-bipyridin]-5-yl}piperidine-4-carboxamide] | < 10
6 | CN1CC(CNC(=O)C2(c3ccc(-c4cccn4C)nc3)CCN(c3ccc(C(F)(F)F)cc3C#N)CC2)C1 [Compound 1-220, 1-[2-cyano-4-(trifluoromethyl)phenyl]-4-[6-(1-methyl-1H-pyrrol-2-yl)pyridin-3-yl]-N-[(1-methylazetidin-3-yl)methyl]piperidine-4-carboxamide] | < 10
7 | CN1CC[C@@H](NC(=O)C2(c3ccc(-c4ccccc4OC4CC4)nc3)CCN(c3ccc(C(F)(F)F)cc3C#N)CC2)C1 [Compound 1-89, 1-[2-cyano-4-(trifluoromethyl)phenyl]-4-[6-(2-cyclopropoxyphenyl)pyridin-3-yl]-N-[(3R)-1-methylpyrrolidin-3-yl]piperidine-4-carboxamide] | < 10
8 | CCOc1ncccc1-c1ccc(C2(C(=O)N[C@@H]3CCN(C)C3)CCN(c3ccc(C(F)(F)F)cc3OC)CC2)cc1 [Compound 1-159, 4-[4-(2-ethoxypyridin-3-yl)phenyl]-1-[2-methoxy-4-(trifluoromethyl)phenyl]-N-[(3R)-1-methylpyrrolidin-3-yl]piperidine-4-carboxamide] | 10 to 100
9 | CCOc1ncccc1-c1ccc(C2(C(=O)NCC3CN(C)C3)CCN(c3ccc(C(F)(F)F)cc3C#N)CC2)cn1 [Compound 1-18, 1-[2-cyano-4-(trifluoromethyl)phenyl]-4-{2′-ethoxy-[2,3′-bipyridin]-5-yl}-N-[(1-methylazetidin-3-yl)methyl]piperidine-4-carboxamide] | < 10
10 | CN1CC[C@@H](NC(=O)C2(c3ccc(-c4cccc5c4OC(F)(F)O5)nc3)CCN(c3ccc(C(F)(F)F)cc3C#N)CC2)C1 [Compound 1-67, 1-[2-cyano-4-(trifluoromethyl)phenyl]-4-[6-(2,2-difluoro-2H-1,3-benzodioxol-4-yl)pyridin-3-yl]-N-[(3R)-1-methylpyrrolidin-3-yl]piperidine-4-carboxamide] | 10 to 100
11 | CN1CC(C(=O)NC2(c3ccc(-c4cccn4C)nc3)CCN(c3ccc(C(F)(F)F)cc3C#N)CC2)C1 [Compound 2-45, N-{1-[2-cyano-4-(trifluoromethyl)phenyl]-4-[6-(1-methyl-1H-pyrrol-2-yl)pyridin-3-yl]piperidin-4-yl}-1-methylazetidine-3-carboxamide] | < 10
12 | CN1CC[C@@H](NC(=O)C2(c3ccc(-c4cccc(F)c4F)nc3)CCN(c3ccc(C(F)(F)F)cc3C#N)CC2)C1 [Compound 1-61, 1-[2-cyano-4-(trifluoromethyl)phenyl]-4-[6-(2,3-difluorophenyl)pyridin-3-yl]-N-[(3R)-1-methylpyrrolidin-3-yl]piperidine-4-carboxamide] | < 10
13 | CCOc1ncccc1-c1ncc(C2(C(=O)NCCNC)CCN(c3ccc(C(F)(F)F)cc3Cl)CC2)cc1F [Compound 1-299, 1-[2-chloro-4-(trifluoromethyl)phenyl]-4-{2′-ethoxy-3-fluoro-[2,3′-bipyridin]-5-yl}-N-[2-(methylamino)ethyl]piperidine-4-carboxamide] | < 10
14 | CCOc1ncccc1-c1ccc(C2(C(=O)NC[C@H](C)N)CCN(c3ccc(C(F)(F)F)cc3C#N)CC2)cc1 [Compound 1-6, N-[(2S)-2-aminopropyl]-1-[2-cyano-4-(trifluoromethyl)phenyl]-4-[4-(2-ethoxypyridin-3-yl)phenyl]piperidine-4-carboxamide] | 10 to 100
15 | CCOc1ncccc1-c1ccc(C2(NC(=O)N3CC(NC)C3)CCN(c3ccc(C(F)(F)F)cc3C#N)CC2)cn1 [Compound 2-23, N-{1-[2-cyano-4-(trifluoromethyl)phenyl]-4-{2′-ethoxy-[2,3′-bipyridin]-5-yl}piperidin-4-yl}-3-(methylamino)azetidine-1-carboxamide] | < 10
16 | CN(C)CCNC(=O)C1(c2ccc(-c3cccn3C)nc2)CCN(c2ccc(C(F)(F)F)cc2C#N)CC1 [Compound 1-216, 1-[2-cyano-4-(trifluoromethyl)phenyl]-N-[2-(dimethylamino)ethyl]-4-[6-(1-methyl-1H-pyrrol-2-yl)pyridin-3-yl]piperidine-4-carboxamide] | < 10
17 | CCOc1ncccc1-c1ncc(C2(C(=O)NCCNC)CCN(c3ccc(C(F)(F)F)cc3F)CC2)cc1F [Compound 1-287, 4-{2′-ethoxy-3-fluoro-[2,3′-bipyridin]-5-yl}-1-[2-fluoro-4-(trifluoromethyl)phenyl]-N-[2-(methylamino)ethyl]piperidine-4-carboxamide] | < 10
18 | CCOc1ncccc1-c1ccc(C2(C(=O)N[C@H]3CCN(C)C3)CCN(c3ccc(OC(F)(F)F)cc3C#N)CC2)cn1 [Compound 1-39, 1-[2-cyano-4-(trifluoromethoxy)phenyl]-4-{2′-ethoxy-[2,3′-bipyridin]-5-yl}-N-[(3S)-1-methylpyrrolidin-3-yl]piperidine-4-carboxamide] | < 10
19 | CN1CC[C@@H](NC(=O)C2(c3ccc(-c4cccc5cnn(C)c45)nc3)CCN(c3ccc(C(F)(F)F)cc3C#N)CC2)C1 [Compound 1-73, 1-[2-cyano-4-(trifluoromethyl)phenyl]-4-[6-(1-methyl-1H-indazol-7-yl)pyridin-3-yl]-N-[(3R)-1-methylpyrrolidin-3-yl]piperidine-4-carboxamide] | < 10
20 | COc1ncccc1-c1ncc(C2(C(=O)N[C@H]3CCN(C)C3)CCN(c3ccc(C(F)(F)F)nc3C#N)CC2)cc1F [Compound 1-133, 1-[2-cyano-6-(trifluoromethyl)pyridin-3-yl]-4-{3-fluoro-2′-methoxy-[2,3′-bipyridin]-5-yl}-N-[(3S)-1-methylpyrrolidin-3-yl]piperidine-4-carboxamide] | < 10
21 | CCOc1ncccc1-c1cnc(C2(C(=O)N[C@H]3CCN(C)C3)CCN(c3ccc(C(F)(F)F)cc3C#N)CC2)cn1 [Compound 1-58, 1-[2-cyano-4-(trifluoromethyl)phenyl]-4-[5-(2-ethoxypyridin-3-yl)pyrazin-2-yl]-N-[(3S)-1-methylpyrrolidin-3-yl]piperidine-4-carboxamide] | < 10
22 | CCOc1ccccc1-c1ncc(C2(C(=O)N[C@H]3CCN(C)C3)CCN(c3ccc(C(F)(F)F)cc3F)CC2)cc1F [Compound 1-200, 4-[6-(2-ethoxyphenyl)-5-fluoropyridin-3-yl]-1-[2-fluoro-4-(trifluoromethyl)phenyl]-N-[(3S)-1-methylpyrrolidin-3-yl]piperidine-4-carboxamide] | < 10
23 | Cn1cccc1-c1ccc(C2(C(=O)N[C@H]3C[C@H](N(C)C)C3)CCN(c3ccc(C(F)(F)F)cc3C#N)CC2)cn1 [Compound 1-240, 1-[2-cyano-4-(trifluoromethyl)phenyl]-4-[6-(1-methyl-1H-pyrrol-2-yl)pyridin-3-yl]-N-[(1R,3R)-3-(dimethylamino)cyclobutyl]piperidine-4-carboxamide] | 10 to 100
24 | CN(C)CCNC(=O)C1(c2ccc(-c3cccn3C)nc2)CCN(c2ccc(C(F)(F)F)cc2Cl)CC1 [Compound 1-282, 1-[2-chloro-4-(trifluoromethyl)phenyl]-N-[2-(dimethylamino)ethyl]-4-[6-(1-methyl-1H-pyrrol-2-yl)pyridin-3-yl]piperidine-4-carboxamide] | < 10
